Read-outs that look alike come from different tables or passages of the source.
Assays:
reserpine treated rats = experiment: Locomotor activity in reserpine treated rats; format: in vivo, rat; details: compound 18 hours after reserpine, 3, 10 or 30 mg/kg, total counts over 1 h
Protocol: (§1) Behavioral parameters were monitored in transparent shoebox cages that measured 45×25×20 cm, with a 1-cm depth of wood chips on the cage floor and a plastic grid on top of the cage. Rectangular photocell monitors with a bank of 3 photocell beams surrounded each test cage. Ambulations (locomotor activity: total number of beam breaks in 1 hour) were recorded by computer and stored for each test session.
(§2) Animals were administered injections of dextrose, reserpine or haloperidol. Formula (i) or Formula (ii) was then administered 18 hours after reserpine at doses of 3, 10 or 30 mg/kg or 15 minutes after haloperidol at doses of 1, 3, 10 or 30 mg/kg. Animals were monitored over a 60-min period in all instances, and data are expressed as total counts over the entire 1 h test period. […] In these studies, clinically effective therapies such as dopamine replacement therapy restore locomotor activity in dopamine-depleted or dopamine antagonist treated animals. Dopamine replacement therapy also, however, produces an overshoot in locomotor activity beyond the locomotor counts observed with normal control animals (with intact dopamine systems). This is considered the activating component of dopamine replacement therapy that results in dyskinesias in Parkinson's patients.

kappa-opioid receptor [1] = molecular target: T1, kappa-opioid receptor (Cavia porcellus, UniProt P41144); experiment: Radioligand binding, kappa receptor ([3H]U69593); set-up: species or system guinea pig
T1 construct: kappa receptors from guinea pig cerebellar homogenate; from tissue; host or cells: guinea pig cerebellar homogenate (membrane fractions)
T1 sequence (P41144 whole entry): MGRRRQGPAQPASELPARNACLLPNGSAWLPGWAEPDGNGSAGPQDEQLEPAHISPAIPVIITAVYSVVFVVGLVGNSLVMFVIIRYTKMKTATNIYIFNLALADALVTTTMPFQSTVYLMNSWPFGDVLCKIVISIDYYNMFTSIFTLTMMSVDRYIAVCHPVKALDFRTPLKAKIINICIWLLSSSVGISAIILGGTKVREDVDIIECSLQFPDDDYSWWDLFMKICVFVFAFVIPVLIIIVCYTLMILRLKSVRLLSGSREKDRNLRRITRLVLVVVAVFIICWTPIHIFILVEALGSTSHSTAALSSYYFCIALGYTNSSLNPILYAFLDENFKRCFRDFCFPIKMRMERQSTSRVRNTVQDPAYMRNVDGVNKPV
Protocol: (§3) The basic pharmacology of the Formulas (i)-(iv) is described below in terms of receptor binding affinity (delta and mu receptors from rat whole brain homogenate; kappa receptors from guinea pig cerebellar homogenate), intrinsic activity in mouse isolated vas deferens (delta receptor) and guinea pig isolated ileum (mu receptor).
(§4) Membrane fractions were incubated with test compound or naloxone (1×10^−6 M) plus 0.1 nM of the delta-opioid receptor agonist [^3H] DPDPE (specific activity 50.6 Ci/mmol), 0.1 nM of the mu-opioid receptor agonist [^3H]DAMGO (specific activity 50.0 Ci/mmol) or 0.1 nM of the kappa-opioid receptor agonist [^3H]U69593 (specific activity 41.4 Ci/mmol) in 2 ml of 10 mM Tris-HCl buffer containing 5 mM MgCl2 and protease inhibitors. Incubation was carried out for 90 min at 25° C. in order to permit the complete equilibration of the radioligand with its receptor. The reaction was terminated by rapid filtration through Whatman GF/C glass fiber filters using a cell harvester (model M-48R, Brandel Instruments, Gaithersberg, Md.) followed by two 5 ml rinses with ice-cold 50 mM Tris buffer. Non-specific binding was defined as that radioligand bound in the presence of 1×10^−6 M naloxone.

haloperidol-treated rats = experiment: Locomotor activity in haloperidol treated rats; format: in vivo, rat; details: for Efficacy on locomotor activity (FIG. 1): compound 15 minutes after haloperidol, 1, 3, 10 or 30 mg/kg, total counts over 1 h
Protocol: as §1, §2

mice [2] = experiment: Seizure-like convulsion incidence in mice; format: in vivo, mouse
Excerpt: One of the most obvious side-effects of potent delta agonists that rapidly penetrate the blood brain barrier is convulsive episodes reminiscent of possible seizure-like brain activity. The mouse is the chosen species for study of these effects since the mouse is the most highly convulsion-sensitive rodent species and mice present with a clear and obvious, whole body tonic-clonic convulsion. One of the earliest phases of delta agonist safety assessments is thus the determination of the convulsion threshold in mice.

delta-opioid receptor = molecular target: T2, delta-opioid receptor (Rattus norvegicus, UniProt P33533); experiment: Radioligand binding, delta receptor ([3H]DPDPE)
T2 construct: delta and mu receptors from rat whole brain homogenate; from tissue; host or cells: rat whole brain homogenate (membrane fractions)
T2 sequence (P33533 whole entry): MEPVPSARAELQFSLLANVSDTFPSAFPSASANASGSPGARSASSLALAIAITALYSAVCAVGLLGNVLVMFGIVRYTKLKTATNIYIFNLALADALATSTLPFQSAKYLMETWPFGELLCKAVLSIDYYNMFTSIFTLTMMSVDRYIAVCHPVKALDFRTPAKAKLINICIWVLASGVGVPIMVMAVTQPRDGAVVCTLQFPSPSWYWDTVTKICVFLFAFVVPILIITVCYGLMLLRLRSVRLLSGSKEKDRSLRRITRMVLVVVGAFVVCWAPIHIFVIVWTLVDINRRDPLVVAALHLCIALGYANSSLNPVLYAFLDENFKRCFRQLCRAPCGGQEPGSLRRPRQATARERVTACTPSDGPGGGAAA
Protocol: as §3, §4

rats [3] = experiment: Seizure-like convulsant activity in rats; format: in vivo, rat; details: oral doses up to 40 mg/kg, results not shown
[4] = tested on: Parkinson's disease rodent models; experiment: Parkinson's disease rodent models (summary statements); format: in vivo, rat; details: for Overshoot of locomotor activation beyond normal control animals: haloperidol- or reserpine-treated rats
Protocol: as §1, §2
An opioid receptor agonist selective for the delta receptor. • 2. Active in Parkinson's disease rodent models. • a. Potent at improving locomotor activity of haloperidol-treated rats. • b. Potent at improving locomotor activity in reserpine treated rats. • 3. Orally active in Parkinson's disease rodent models. • a.

delta receptor = molecular target: T3, delta receptor (Mus musculus, UniProt P32300); experiment: Intrinsic activity, electrically-induced contractions of mouse isolated vas deferens (MVD); format: cell-based
T3 construct: vasa deferentia were isolated from male CD-1 mice; tissue Charles River; host or cells: isolated vas deferens of male CD-1 mice
T3 sequence (P32300 whole entry): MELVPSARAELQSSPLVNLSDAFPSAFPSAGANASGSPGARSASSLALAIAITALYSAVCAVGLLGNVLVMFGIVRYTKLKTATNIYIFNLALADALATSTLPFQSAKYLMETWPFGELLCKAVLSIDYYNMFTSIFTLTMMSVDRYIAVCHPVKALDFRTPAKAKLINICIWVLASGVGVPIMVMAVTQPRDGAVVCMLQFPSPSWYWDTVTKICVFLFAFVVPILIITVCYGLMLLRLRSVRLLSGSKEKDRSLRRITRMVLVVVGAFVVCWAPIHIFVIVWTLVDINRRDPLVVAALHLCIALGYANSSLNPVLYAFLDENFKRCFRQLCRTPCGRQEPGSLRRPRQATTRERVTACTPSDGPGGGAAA
Protocol: as §3
Tension development in isolated mouse vas deferens was measured as described previously (Chang et al., 1993). Following cervical dislocation, vasa deferentia were isolated from male CD-1 mice (Charles River, Raleigh, N.C.) weighing 20-25 g. Muscles were suspended in individual organ baths containing Mg-free Krebs-Henseleit solution (37° C., aerated with O2—CO2, 95:5) of the following composition (mM): NaCl, 117.5; KCl, 4.75; CaCl2, 2.6; KH2PO4, 1.2; NaHCO3, 24.5; and glucose, 11. The vas deferens segments were positioned between platinum electrodes (Radnoti Glassware Technology Inc., Monrovia, Calif.) and connected to a Grass (Grass-Telefactor, West Warwick, R.I.) FTO3 isometric force transducer under a resting tension of 0.5 g. Muscles were stimulated to contract by administering 400 msec pulse trains (1 msec duration, supramaximal voltage, 10 Hz) with a Grass S88 stimulator. An IC50 value for test compound inhibition of electrically-induced contractions was produced through the addition of cumulative concentrations of test compound to the bathing solution (Chang et al., 1993).
The ED50 values for formula (ii) were extrapolated from curves showing the dose concentration plotted against the response and are presented in FIG. 2.

mu-opioid receptor [5] = molecular target: T4, mu-opioid receptor (Rattus norvegicus, UniProt P33535); experiment: Radioligand binding, mu receptor ([3H]DAMGO)
T4 construct: delta and mu receptors from rat whole brain homogenate; from tissue; host or cells: rat whole brain homogenate (membrane fractions)
T4 sequence (P33535 whole entry): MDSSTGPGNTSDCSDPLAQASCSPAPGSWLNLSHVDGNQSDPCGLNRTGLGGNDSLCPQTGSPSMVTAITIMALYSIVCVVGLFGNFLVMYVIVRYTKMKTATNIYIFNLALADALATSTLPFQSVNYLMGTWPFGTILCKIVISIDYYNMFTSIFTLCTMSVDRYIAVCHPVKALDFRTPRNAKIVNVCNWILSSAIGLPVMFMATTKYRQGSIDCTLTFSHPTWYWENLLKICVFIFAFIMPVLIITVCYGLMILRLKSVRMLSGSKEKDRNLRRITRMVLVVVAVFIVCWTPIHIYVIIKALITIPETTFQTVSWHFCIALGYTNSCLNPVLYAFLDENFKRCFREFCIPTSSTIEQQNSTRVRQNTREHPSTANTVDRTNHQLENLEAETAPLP
Protocol: as §3, §4

MPTP-treated marmosets = details: cited from earlier work
rats [6] = details: cited from earlier work
mu-opioid receptor [7] = molecular target: T4, mu-opioid receptor; details: known results of SNC80; read-out: Receptor Binding Affinity, Ki Mu; cited from earlier work
[8] = tested on: rats treated with reserpine or dopamine receptor antagonists (haloperidol or SCH23390); details: 10 mg/kg i.p.; cited from earlier work
kappa-opioid receptor [9] = molecular target: T1, kappa-opioid receptor; details: known results of SNC80; read-out: Receptor Binding Affinity, Ki Kappa; cited from earlier work
mice [10] = details: cited from earlier work
[11] = tested on: MPTP-lesioned primate (marmosets) model of Parkinson's disease; details: 10 mg/kg i.p., without attenuation of the anti-parkinsonian actions of L-DOPA; cited from earlier work

Row | SMILES | Efficacy on locomotor activity (FIG. 1) (reserpine treated rats) | Ki (kappa-opioid receptor [1]) [µM] | Efficacy on locomotor activity (FIG. 1) (haloperidol-treated rats; haloperidol treated rats) | Seizure-like convulsion incidence in mice (% of animals treated) (mice [2]; Intravenous 1 mg/kg) [%] | Seizure-like convulsion incidence in mice (% of animals treated) (mice [2]; Intravenous 3 mg/kg) [%] | Ki (delta-opioid receptor) [µM] | Oral activity in Parkinson's disease rodent models [4] | EC50 (delta receptor) [µM] | Ki (mu-opioid receptor [5]) [µM] | Seizure-like convulsion incidence in mice (% of animals treated) (mice [2]; Oral 60 mg/kg) [%] | also measured
1 | CCN(CC)C(=O)c1ccc([C@H](c2cccc(O)c2)N2C[C@@H](C)N(Cc3cccc(F)c3)C[C@@H]2C)cc1 [Formula (i), 4-((alpha-R)-alpha-((2S,5R)-2,5-Dimethyl-4-(3-fluorobenzyl)-1-piperazinyl)-3-hydroxybenzyl)-N,N-diethylbenzamide] | clear efficacy | 0.567 | clear efficacy | 50 | 40 | 0.00073 | Orally active | 0.0026 | 0.0116 | – | Seizure-like convulsion incidence in mice (% of animals treated) (mice [2]; Intravenous 0.3 mg/kg): 0%; Seizure-like convulsion incidence in mice (% of animals treated) (mice [2]; Oral 15 mg/kg): 23%; Seizure activity in mice relative to SNC80 (mice [2]): reduced relative to SNC80; Binding affinity for the delta receptor compared to SNC80 (delta-opioid receptor): increased binding affinity; Oral seizure-like convulsant activity in rats (rats [3]): no oral-seizure-like convulsant activity; Overshoot of locomotor activation beyond normal control animals [4]: No evidence for overshoot of locomotor activation; Binding affinity for the mu receptor compared to SNC80 (mu-opioid receptor [5]): increased binding affinity
2 | CCN(CC)C(=O)c1ccc([C@H](c2cccc(O)c2)N2C[C@@H](C)N(Cc3ccccc3F)C[C@@H]2C)cc1 [Formula (ii), 4-((Alpha-R)-Alpha-((2S,5R)-2,5-Dimethyl-4-(2-fluorobenzyl)-1-piperazinyl)-3-hydroxybenzyl)-N,N-diethylbenzamide] | clear efficacy | 0.171 | clear efficacy | 0 | 30 | – | Orally active | 0.003 | 0.0078 | 30 | Beneficial effects in presence of delta receptor antagonist naltrindole (FIG. 4) (haloperidol-treated rats; haloperidol treated rats, with naltrindole (NTI)): completely blocked; Anti-parkinsonian syndrome effects (FIG. 3B) (haloperidol-treated rats; haloperidol-treated rats, i.p. (intraperitoneal)): shows potency; Anti-parkinsonian syndrome effects (FIG. 3A) (haloperidol-treated rats; haloperidol-treated rats, p.o. (oral, by gavage)): shows potency; Seizure-like convulsion incidence in mice (% of animals treated) (mice [2]; Oral 15 mg/kg): 20%; Seizure-like convulsion incidence in mice (% of animals treated) (mice [2]; Oral 30 mg/kg): 20%; Seizure activity in mice relative to SNC80 (mice [2]): reduced relative to SNC80; Binding affinity for the delta receptor compared to SNC80 (delta-opioid receptor): increased binding affinity; Ki (delta-opioid receptor; rat whole brain homogenate, 0.1 nM [3H]DPDPE, read-out: Receptor Binding Affinity, Ki Delta): 0.00077 µM; Overshoot of locomotor activation beyond normal control animals [4]: No evidence for overshoot of locomotor activation; Binding affinity for the mu receptor compared to SNC80 (mu-opioid receptor [5]): increased binding affinity
3 | CCN(CC)C(=O)c1ccc([C@H](c2cccc(OC)c2)N2C[C@@H](C)N(Cc3cccc(F)c3)C[C@@H]2C)cc1 [Formula (iii), 4-((alpha-R)-alpha-((2S,5R)-2,5-Dimethyl-4-(3-fluorobenzyl)-1-piperazinyl)-3-methoxybenzyl)-N,N-diethylbenzamide] | – | 0.1 | – | – | 20 | 0.0056 | – | 0.029 | 5 | 0 | –
4 | CCN(CC)C(=O)c1ccc([C@H](c2cccc(OC)c2)N2C[C@@H](C)N(Cc3ccccc3F)C[C@@H]2C)cc1 [Formula (iv), 4-((alpha-R)-alpha-((2S,5R)-2,5-Dimethyl-4-(2-fluorobenzyl)-1-piperazinyl)-3-methoxybenzyl)-N,N-diethylbenzamide] | – | 0.1 | – | 0 | 20 | 0.0042 | – | 0.0041 | 5 | 10 | Seizure-like convulsion incidence in mice (% of animals treated) (mice [2]; Oral 30 mg/kg): 0%
5 | C=CCN1C[C@H](C)N([C@H](c2ccc(C(=O)N(CC)CC)cc2)c2cccc(OC)c2)C[C@H]1C [SNC80] | clear efficacy | – | clear efficacy | 30 | 100 | – | lack of oral activity | – | – | – | Parkinsonian posture induced by MPTP treatment (MPTP-treated marmosets): not statistically reversed; Motor activity, bradykinesia and disability scores (MPTP-treated marmosets; similar dose levels (10 mg/kg)): restored motor activity, bradykinesia and disability scores to normal; Seizure-like convulsion incidence in mice (% of animals treated) (mice [2]; Intravenous 0.3 mg/kg): 0%; Seizure-like convulsions (Broom, et al., 2002) (rats [6]): produce seizure-like convulsions; Ki (mu-opioid receptor [7]): 4.8 µM; Behavioral deficits (ambulatory behavior, grooming, rearing, social interaction and exploration, static investigation) [8]: restored behavioral deficits; Ki (kappa-opioid receptor [9]): 4.1 µM; Seizure-like convulsions (Broom, et al., 2002) (mice [10]): produce seizure-like convulsions
6 | COc1cccc2c1[C@]13CCN(CC4CC4)[C@H](C2)[C@]1(OC)CCC(=O)C3 [cyprodime] | – | – | – | – | – | – | – | – | – | – | L-DOPA-induced dyskinesia [11]: reduce completely
7 | Oc1ccc2c3c1O[C@H]1c4[nH]c5ccccc5c4C[C@@]4(O)[C@@H](C2)N(CC2CC2)CC[C@]314 [naltrindole, reference compound] | – | – | – | – | – | – | – | – | – | – | Effect alone in haloperidol treated rats (FIG. 4) (haloperidol-treated rats; naltrindole alone): no effect

From patent US9701645B2 (priority 2005, dated 2017)
